pEC50: −log10 of the molar value.
Test system: C666-1 cells
Test: C666-1 Cell Viability Assay (Resazurin cytotoxicity test)
Type: cell-based
Conditions: Homo sapiens, C6661, EB virus-positive C666-1 cells, 72 hours treatment, 100-0.78 micromole/L, read-out: Inhibitory Rate
Experimental: In order to evaluate the inhibitory effect of the small molecular compound of the present disclosure on EBNA1 at the cellular level, a cytotoxicity test was performed.
As mentioned in the Background of the present disclosure, nasopharyngeal carcinoma is a kind of disease highly associated with latent infection of EB virus. EB virus in latent state only expresses limited proteins to maintain its genome replication, among which EBNA1 protein is an essential functional protein. Studies have confirmed that inhibition of EBNA1 can reduce the proliferation of the corresponding nasopharyngeal carcinoma cells or kill them. Therefore, EB virus-positive nasopharyngeal carcinoma tumor cells (C666-1 cells) are selected for test to verify the effect of the small molecular compound of the present disclosure.
During testing, 100 microliters of different cell lines were inoculated onto a transparent 96-well plate, and 5×10^3 cells were inoculated in each well for C666-1 cells. After the cells were cultured in an incubator under […] at 37° C. for 24 hours, 10 microliters of compound with a concentration ranging from 1 mmol/L to 7.8 micromol/L were added to each well (8 points, double dilution, the final concentration was 100-0.78 micromole/L), and treated in the incubator under carbon dioxide at 37° C. for 72 hours. Cell viability was assessed using the redox indicator Resazurin. After addition of 10 microliters of 600 micromole/liter Resazurin to each well and incubation at 37° C. for 3 hours. Using a Tecan microplate reader, the fluorescence signals were detected at an […]. A software was used to fit the inhibition curve and calculate half-maximal effect concentration (EC50). The selectivity of compound activity was assessed by comparing the EC50 values of EB virus-positive and EB virus-negative cell lines.

For `COC(=O)c1cccc(N2CC(Oc3ccc(OCc4cccnc4)cc3)C2)c1-n1cccc1` [Example 24, methyl 3-(3-(4-(pyridin-3-ylmethoxy)phenoxy)azetidin-1-yl)-2-(1H-pyrrol-1-yl) benzoate], the pEC50 was 5.00 to 6.00.
`O=C(O)c1cccc(N2CC(Oc3ccc(OCc4cccnc4)cc3)C2)c1-n1cccc1` [Example 24a, 3-(3-(4-(pyridin-3-ylmethoxy)phenoxy)azetidin-1-yl)-2-(1H-pyrrol-1-yl) benzoic acid] gave a pEC50 of 4.30 to 5.00.
Work on `O=C(NO)c1cccc(N2CC(Oc3ccc(OCc4cccnc4)cc3)C2)c1-n1cccc1` [Example 24b, N-hydroxy-3-(3-(4-(pyridin-3-ylmethoxy)phenoxy)azetidin-1-yl)-2-(1H-pyrrol-1-yl) benzamide] yielded a pEC50 greater than 6.00.
For `COC(=O)c1cccc(N2CC(Oc3ccc(Oc4cccnc4)cc3)C2)c1-n1cccc1` [Example 25, methyl 3-(3-(4-(pyridin-3-yloxy)phenoxy)azetidin-1-yl)-2-(1H-pyrrol-1-yl) benzoate], the pEC50 was less than 4.30.
Compound `O=C(O)c1cccc(N2CC(Oc3ccc(Oc4cccnc4)cc3)C2)c1-n1cccc1` [Example 25a, 3-(3-(4-(pyridin-3-yloxy)phenoxy)azetidin-1-yl)-2-(1H-pyrrol-1-yl) benzoic acid] has a pEC50 of less than 4.30.
Compound `COC(=O)c1cccc(N2CC(Oc3ccc(Oc4ccncc4)cc3)C2)c1-n1cccc1` [Example 26, methyl 3-(3-(4-(pyridin-4-yloxy)phenoxy)azetidin-1-yl)-2-(1H-pyrrol-1 - yl) benzoate] has a pEC50 of 5.00 to 6.00.
Work on `O=C(O)c1cccc(N2CC(Oc3ccc(Oc4ccncc4)cc3)C2)c1-n1cccc1` [Example 26a, 3-(3-(4-(pyridin-4-yloxy)phenoxy)azetidin-1 - yl)-2-(1H-pyrrol-1-yl) benzoic acid] yielded a pEC50 of 4.30 to 5.00.
With `COC(=O)c1cccc(N2CC(Oc3ccc(COCc4cccnc4)cc3)C2)c1-n1cccc1` [Example 27, methyl 3-(3-(4-((pyridin-3-ylmethoxy)methyl)phenoxy)azetidin-1-yl)-2-(1H-pyrrol-1-yl) benzoate] the pEC50 was 4.30 to 5.00.
In the case of `O=C(O)c1cccc(N2CC(Oc3ccc(COCc4cccnc4)cc3)C2)c1-n1cccc1` [Example 27a, 3-(3-(4-((pyridin-3-ylmethoxy)methyl)phenoxy)azetidin-1-yl)-2-(1H-pyrrol-1-yl) benzoic acid], the pEC50 was less than 4.30.
For `O=C(NO)c1cccc(N2CC(Oc3ccc(COCc4cccnc4)cc3)C2)c1-n1cccc1` [Example 27b, N-Hydroxy-3-(3-(4-((pyridin-3-ylmethoxy)methyl)phenoxy)azetidin-1-yl)-2-(1H-pyrrol-1-yl)benzamide], the pEC50 was greater than 6.00.
With `COC(=O)c1cccc(N2CC(Oc3ccc(/C=C/c4cccnc4)cc3)C2)c1-n1cccc1` [Example 28, methyl (E)-3-(3-(4-(2-(pyridin-3-yl)vinyl)phenoxy)azetidin-1-yl)-2-(1H-pyrrol-1-yl) benzoate] the pEC50 was less than 4.30.
`O=C(O)c1cccc(N2CC(Oc3ccc(/C=C/c4cccnc4)cc3)C2)c1-n1cccc1` [Example 28a, (E)-3-(3-(4-(2-(pyridin-3-yl)vinyl)phenoxy)azetidin-1-yl)-2-(1H-pyrrol-1-yl) benzoic acid] gave a pEC50 of 5.00 to 6.00.
In the case of `O=C(NO)c1cccc(N2CC(Oc3ccc(/C=C/c4cccnc4)cc3)C2)c1-n1cccc1` [Example 28b, (E)-N-hydroxy-3-(3-(4-(2-(pyridin-3-yl)vinyl)phenoxy)azetidin-1-yl)-2-(1H-pyrrol-1-yl) benzamide], the pEC50 was greater than 6.00.
`COC(=O)c1cccc(N2CC(Oc3ccc(CCc4cccnc4)cc3)C2)c1-n1cccc1` [Example 29, methyl 3-(3-(4-(2-(pyridin-3-yl)ethyl)phenoxy)azetidin-1-yl)-2-(1H-pyrrol-1-yl) benzoate] showed a pEC50 of less than 4.30.
`O=C(O)c1cccc(N2CC(Oc3ccc(CCc4cccnc4)cc3)C2)c1-n1cccc1` [Example 29a, 3-(3-(4-(2-(pyridin-3-yl)ethyl)phenoxy)azetidin-1-yl)-2-(1H-pyrrol-1-yl) benzoic acid] showed a pEC50 of less than 4.30.
`COC(=O)c1cccc(N2CC(Oc3ccc(COc4cccs4)cc3)C2)c1-n1cccc1` [Example 30, methyl 2-(1H-pyrrol-1-yl)-3-(3-(4-((thiophen-2-yloxy)methyl)phenoxy)azetidin-1-yl) benzoate] was tested, and the pEC50 was less than 4.30.
Compound `O=C(O)c1cccc(N2CC(Oc3ccc(COc4cccs4)cc3)C2)c1-n1cccc1` [Example 30a, 2-(1H-pyrrol-1-yl)-3-(3-(4-((thiophen-2-yloxy)methyl)phenoxy)azetidin-1-yl) benzoic acid] has a pEC50 of less than 4.30.
With `COC(=O)c1cccc(N2CC(Oc3ccc(NC(=O)c4cccnc4)cc3)C2)c1-n1cccc1` [Example 31, methyl 3-(3-(4-(nicotinamido)phenoxy)azetidin-1-yl)-2-(1H-pyrrol-1-yl) benzoate] the pEC50 was 4.30 to 5.00.
`O=C(Nc1ccc(OC2CN(c3cccc(C(=O)O)c3-n3cccc3)C2)cc1)c1cccnc1` [Example 31a, 3-(3-(4-(nicotinoamido)phenoxy)azetidin-1-yl)-2-(1H-pyrrol-1-yl) benzoic acid] gave a pEC50 of 4.30 to 5.00.
With `O=C(Nc1ccc(OC2CN(c3cccc(C(=O)NO)c3-n3cccc3)C2)cc1)c1cccnc1` [Example 31b, N-(4-((1-(3-(hydroxycarbamoyl)-2-(1H-pyrrol-1-yl)phenyl)azetidin-3-yl)oxy)phenyl) nicotinamide] the pEC50 was greater than 6.00.
In the case of `COC(=O)c1cccc(N2CC(Oc3ccc(COc4ccn(C)n4)cc3)C2)c1-n1cccc1` [Example 32, methyl 3-(3-(4-(((1-methyl-1H-pyrazol-3-yl)oxy)methyl)phenoxy)azetidin-1-yl)-2-(1H-pyrrol-1-yl) benzoate], the pEC50 was less than 4.30.
With `Cn1ccc(OCc2ccc(OC3CN(c4cccc(C(=O)O)c4-n4cccc4)C3)cc2)n1` [Example 32a, 3-(3-(4-(((1-methyl-1H-pyrazol-3-yl)oxy)methyl)phenoxy)azetidin-1-yl)-2-(1H-pyrrol-1-yl) benzoic acid] the pEC50 was less than 4.30.
Compound `COC(=O)c1cccc(N2CC(Oc3ccc(COc4ccsn4)cc3)C2)c1-n1cccc1` [Example 33, methyl 3-(3-(4-((isothiazol-3-yloxy)methyl)phenoxy)azetidin-1-yl)-2-(1H-pyrrol-1-yl) benzoate] has a pEC50 of less than 4.30.
`O=C(O)c1cccc(N2CC(Oc3ccc(COc4ccsn4)cc3)C2)c1-n1cccc1` [Example 33a, 3-(3-(4-((isothiazol-3-yloxy)methyl)phenoxy)azetidin-1-yl)-2-(1H-pyrrol-1-yl) benzoic acid] was tested, and the pEC50 was less than 4.30.
Work on `COC(=O)c1cccc(N2CC(Oc3ccc(NC(=O)Nc4cccnc4)cc3)C2)c1-n1cccc1` [Example 34, methyl 3-(3-(4-(3-(pyridin-3-yl)ureido)phenoxy)azetidin-1-yl)-2-(1H-pyrrol-1-yl) benzoate] yielded a pEC50 greater than 6.00.
With `O=C(Nc1ccc(OC2CN(c3cccc(C(=O)O)c3-n3cccc3)C2)cc1)Nc1cccnc1` [Example 34a, 3-(3-(4-(3-(pyridin-3-yl)ureido)phenoxy)azetidin-1-yl)-2-(1H-pyrrol-1-yl) benzoic acid] the pEC50 was 5.00 to 6.00.
In the case of `O=C(Nc1ccc(OC2CN(c3cccc(C(=O)NO)c3-n3cccc3)C2)cc1)Nc1cccnc1` [Example 34b, N-hydroxy-3-(3-(4-(3-(pyridin-3-yl)ureido)phenoxy)azetidin-1-yl)-2-(1H-pyrrol-1-yl) benzamide], the pEC50 was greater than 6.00.
Compound `COC(=O)c1cccc(N2CC(Oc3ccc(CC(=O)Nc4ccccc4)cc3)C2)c1-n1cccc1` [Example 35, methyl 3-(3-(4-(2-oxo-2-(phenylamino)ethyl)phenoxy)azetidin-1-yl)-2-(1H-pyrrol-1-yl) benzoate] has a pEC50 of less than 4.30.
`O=C(Cc1ccc(OC2CN(c3cccc(C(=O)O)c3-n3cccc3)C2)cc1)Nc1ccccc1` [Example 35a, 3-(3-(4-(2-oxo-2-(phenylamino)ethyl)phenoxy)azetidin-1-yl)-2-(1H-pyrrol-1-yl) benzoic acid] showed a pEC50 of less than 4.30.
`COC(=O)c1cccc(N2CC(Oc3ccc(/C=C/c4cccnc4)cc3)C2)c1-c1ccccc1` [Example 36, methyl (E)-6-(3-(4-(2-(pyridin-3-yl)vinyl)phenoxy)azetidin-1-yl)-[1,1′-biphenyl]-2-carboxylate] was tested, and the pEC50 was 4.30 to 5.00.
With `O=C(O)c1cccc(N2CC(Oc3ccc(/C=C/c4cccnc4)cc3)C2)c1-c1ccccc1` [Example 36a, (E)-6-(3-(4-(2-(pyridin-3-yl)vinyl)phenoxy)azetidin-1-yl)-[1,1′-biphenyl]-2-carboxylic acid] the pEC50 was 4.30 to 5.00.
`O=C(NO)c1cccc(N2CC(Oc3ccc(/C=C/c4cccnc4)cc3)C2)c1-c1ccccc1` [Example 36b, (E)-N-hydroxy-6-(3-(4-(2-(pyridin-3-yl)vinyl)phenoxy)azetidin-1-yl)-[1,1′-biphenyl]-2-carboxamide] showed a pEC50 greater than 6.00.
Compound `COC(=O)c1cccc(N2CC(Oc3ccc(NC(=O)Nc4cccc(C(F)(F)F)c4)cc3)C2)c1-c1cccc(Cl)c1` [Example 37, methyl 3′-chloro-6-(3-(4-(3-(3-(trifluoromethyl)phenyl)ureido)phenoxy)azetidin-1-yl)-[1,1′-biphenyl]-2-carboxylate] has a pEC50 of 4.30 to 5.00.
